# Starred links: 1 amine or outer side, 2 acyl side, 3 side chain; linkers in the order of their positions; H or OH if unused. Positions of bridges follow the written chain, without caps; N, C: chain ends. Non-standard residues stand in square brackets, D forms with d. Residues, ends and D or L forms follow the SMILES beside them. *: point of attachment. Bip(4'-NHCO-C6H4-3-CH2COOH) = N[C@@H](Cc1ccc(-c2ccc(NC(=O)c3cccc(CC(=O)O)c3)cc2)cc1)C(=O)O; dArg(ω-(2S)-2,3-diOHpropyl) = N=C(NCCC[C@@H](N)C(=O)O)NC[C@H](O)CO; Bip(4'-NH) = O=C([C@H](Cc1ccc(-c2ccc(N[*:3])cc2)cc1)N[*:1])[*:2]; Indazole3carbonyl(1-CH2COOH) = O=C(O)Cn1nc(C(=O)*)c2ccccc21; Bip(4'-COOH) = N[C@@H](Cc1ccc(-c2ccc(C(=O)O)cc2)cc1)C(=O)O; Bip(4'-NHAc) = CC(=O)Nc1ccc(-c2ccc(C[C@H](N)C(=O)O)cc2)cc1; dArg(ω-Bn) = N=C(NCCC[C@@H](N)C(=O)O)NCc1ccccc1; Ala(morpholin-4-yl) = N[C@@H](CN1CCOCC1)C(=O)O; Phe(3-CONH2) = NC(=O)c1cccc(C[C@H](N)C(=O)O)c1; Bip = N[C@@H](Cc1ccc(-c2ccccc2)cc1)C(=O)O; X3 = O=C(O)c1cccc(Oc2ccccc2C(=O)*)c1; 2Pal = N[C@@H](Cc1ccccn1)C(=O)O; Tic = O=C(O)[C@@H]1Cc2ccccc2CN1; X32 = O=C(c1sc2cccc(Cl)c2c1Cl)*; Cha = N[C@@H](CC1CCCCC1)C(=O)O; Tle = CC(C)(C)[C@H](N)C(=O)O; hLeu = CC(C)CC[C@H](N)C(=O)O; Sar = CNCC(=O)O
# Biological target: TNFα (Homo sapiens, UniProt P01375)
# Experiment: TNF-Induced HEK-Blue Assay
# Assay type: cell-based
# Conditions: not given
# TNFα, sequence (P01375 77-233 limits assumed): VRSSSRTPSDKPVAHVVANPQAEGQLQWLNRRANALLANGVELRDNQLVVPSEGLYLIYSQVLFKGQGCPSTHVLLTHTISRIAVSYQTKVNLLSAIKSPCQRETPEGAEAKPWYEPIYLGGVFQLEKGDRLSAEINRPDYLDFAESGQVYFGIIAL
row,SMILES,IC50
1,CC(C)C[C@@H]1NC(=O)[C@H](Cc2ccccn2)NC(=O)[C@H](C(C)C)NC(=O)[C@@H]2CCCN2C(=O)[C@H](C(C)C)NC(=O)[C@@H](CCCNC(=N)N)NC(=O)[C@H](CC(=O)O)NC(=O)[C@H](Cc2ccc(O)cc2)NC(=O)CN(C)C(=O)[C@H](Cc2ccc(-c3ccc(NC(=O)c4nn(CC(=O)O)c5ccccc45)cc3)cc2)NC(=O)[C@H](Cc2ccc(-c3ccc(C(=O)O)cc3)cc2)NC(=O)[C@H](CC2CCCCC2)NC(=O)CSC[C@@H](C(=O)NCC(N)=O)NC1=O [Example 362] ({CH2CO}-[Cha][Bip(4'-COOH)][Bip(4'-NH)](Indazole3carbonyl(1-CH2COOH))[Sar]YD[dR]VPV[2Pal]LCG-NH2; thioether N-13),< 50 nM
2,"CC(C)C[C@@H]1NC(=O)[C@H](Cc2ccc(O)cc2)NC(=O)[C@H](C(C)C)NC(=O)[C@@H]2CCCN2C(=O)[C@H](C(C)C)NC(=O)[C@@H](CCCNC(=N)NC[C@H](O)CO)NC(=O)[C@H](CC(=O)O)NC(=O)[C@@H]2CCCN2C(=O)CN(C)C(=O)[C@H](Cc2ccc(-c3ccc(NC(=O)c4nn(CC(=O)O)c5ccccc45)cc3)cc2)NC(=O)[C@H](Cc2ccc(-c3ccc(C(=O)O)cc3)cc2)NC(=O)[C@H](CC2CCCCC2)NC(=O)CSC[C@@H](C(=O)NCC(N)=O)NC1=O [Example 545] ({CH2CO}-[Cha][Bip(4'-COOH)][Bip(4'-NH)](Indazole3carbonyl(1-CH2COOH))[Sar]PD[dArg(ω-(2S)-2,3-diOHpropyl)]VPVYLCG-NH2; thioether N-13)",50 to 200 nM

# Same assay, conditions: HEK-Blue-CD40L cells, NF-kB-driven secreted alkaline phosphatase reporter; TNFα 0.5 ng/ml; 18 h; read-out: TNF induced HEK-Blue assay IC50 value
row,IC50,SMILES
1,< 50 nM,CC(=O)Nc1ccc(-c2ccc(C[C@@H]3NC(=O)[C@H](Cc4ccc(-c5ccc(C(=O)O)cc5)cc4)NC(=O)[C@H](CN4CCOCC4)NC(=O)CSC[C@@H](C(=O)NCC(N)=O)NC(=O)[C@H](CC(C)C)NC(=O)[C@H](Cc4cccc(C(N)=O)c4)NC(=O)[C@H](C(C)C)NC(=O)[C@@H]4CCCN4C(=O)[C@H](C(C)C)NC(=O)[C@@H](CCCNC(=N)N)NC(=O)[C@H](CC(=O)O)NC(=O)[C@H](Cc4ccc(O)cc4)NC(=O)CN(C)C3=O)cc2)cc1 [Example 457] ({CH2CO}-[Ala(morpholin-4-yl)][Bip(4'-COOH)][Bip(4'-NHAc)][Sar]YD[dR]VPV[Phe(3-CONH2)]LCG-NH2; thioether N-13)
2,50 to 200 nM,CC(=O)Nc1ccc(-c2ccc(C[C@@H]3NC(=O)[C@H](Cc4ccc(-c5ccccc5)cc4)NC(=O)[C@H](CN4CCOCC4)NC(=O)CSC[C@@H](C(=O)NCC(N)=O)NC(=O)[C@H](CC(C)C)NC(=O)[C@H](Cc4ccc(O)cc4)NC(=O)[C@H](C(C)C)NC(=O)[C@@H]4CCCN4C(=O)[C@H](CC(N)=O)NC(=O)[C@@H](CCCNC(=N)N)NC(=O)[C@H](CC(=O)O)NC(=O)[C@H](Cc4ccccn4)NC(=O)CN(C)C3=O)cc2)cc1 [Example 173] ({CH2CO}-[Ala(morpholin-4-yl)][Bip][Bip(4'-NHAc)][Sar][2Pal]D[dR]NPVYLCG-NH2; thioether N-13)
3,200 to 2000 nM,CC[C@H](C)[C@@H]1NC(=O)[C@@H](CCCNC(=N)N)NC(=O)[C@H](CC(=O)O)NC(=O)[C@H](Cc2cnc[nH]2)NC(=O)CN(C)C(=O)[C@H](Cc2ccc(-c3ccc(NC(=O)c4sc5cccc(Cl)c5c4Cl)cc3)cc2)NC(=O)[C@H](Cc2ccc(-c3ccccc3)cc2)NC(=O)[C@H](CC2CCCCC2)NC(=O)CSC[C@@H](C(=O)NCC(N)=O)NC(=O)[C@H](CC(C)C)NC(=O)[C@H](Cc2cnc[nH]2)NC(=O)[C@H](C(C)C)NC(=O)[C@@H]2CCCN2C1=O [Example 325] ({CH2CO}-[Cha][Bip][Bip(4'-NH)](X32)[Sar]HD[dR]IPVHLCG-NH2; thioether N-13)
4,50 to 200 nM,CC(=O)Nc1ccc(-c2ccc(C[C@@H]3NC(=O)[C@H](Cc4ccc(-c5ccccc5)cc4)NC(=O)[C@H](C(C)(C)C)NC(=O)CSC[C@@H](C(=O)NCC(N)=O)NC(=O)[C@H](CC(C)C)NC(=O)[C@H](Cc4ccccc4)NC(=O)[C@H](C(C)C)NC(=O)[C@@H]4CCCN4C(=O)[C@H](C(C)C)NC(=O)[C@@H](CCCNC(=N)N)NC(=O)[C@H](CC(=O)O)NC(=O)[C@H](Cc4ccc(O)cc4)NC(=O)CN(C)C3=O)cc2)cc1 [Example 263] ({CH2CO}-[Tle][Bip][Bip(4'-NHAc)][Sar]YD[dR]VPVFLCG-NH2; thioether N-13)
5,50 to 200 nM,CC(C)C[C@@H]1NC(=O)[C@H](CCCNC(=N)N)NC(=O)[C@H](C(C)C)NC(=O)[C@@H]2Cc3ccccc3CN2C(=O)[C@H](C(C)C)NC(=O)[C@H](CCCNC(=N)N)NC(=O)[C@H](CC(=O)O)NC(=O)[C@@H]2CCCN2C(=O)CN(C)C(=O)[C@H](Cc2ccc(-c3ccccc3)cc2)NC(=O)[C@H](Cc2ccc(-c3ccccc3)cc2)NC(=O)[C@H](Cc2ccccc2)NC(=O)CSC[C@@H](C(=O)NCC(N)=O)NC1=O [Example 40] ({CH2CO}-F[Bip][Bip][Sar]PDRV[Tic]VRLCG-NH2; thioether N-13)
6,< 50 nM,CC(C)C[C@@H]1NC(=O)[C@H](Cc2cccc(C(N)=O)c2)NC(=O)[C@H](C(C)C)NC(=O)[C@@H]2CCCN2C(=O)[C@H](C(C)C)NC(=O)[C@@H](CCCNC(=N)NCc2ccccc2)NC(=O)[C@H](CC(=O)O)NC(=O)[C@H](Cc2ccc(O)cc2)NC(=O)CN(C)C(=O)[C@H](Cc2ccc(-c3ccc(NC(=O)c4cccc(CC(=O)O)c4)cc3)cc2)NC(=O)[C@H](Cc2ccc(-c3ccccc3)cc2)NC(=O)[C@H](CN2CCOCC2)NC(=O)CSC[C@@H](C(=O)NCC(N)=O)NC1=O [Example 603] ({CH2CO}-[Ala(morpholin-4-yl)][Bip][Bip(4'-NHCO-C6H4-3-CH2COOH)][Sar]YD[dArg(ω-Bn)]VPV[Phe(3-CONH2)]LCG-NH2; thioether N-13)
7,200 to 2000 nM,CC(C)CC[C@@H]1NC(=O)CSC[C@@H](C(=O)NCC(N)=O)NC(=O)[C@H](CC(C)C)NC(=O)[C@H](CCCNC(=N)N)NC(=O)[C@H](C(C)C)NC(=O)[C@@H]2CCCN2C(=O)[C@H](C(C)C)NC(=O)[C@H](CCCNC(=N)N)NC(=O)[C@H](CC(=O)O)NC(=O)[C@@H]2CCCN2C(=O)CN(C)C(=O)[C@H](Cc2ccc(-c3ccccc3)cc2)NC(=O)[C@H](Cc2ccc(-c3ccccc3)cc2)NC1=O [Example 28] ({CH2CO}-[hLeu][Bip][Bip][Sar]PDRVPVRLCG-NH2; thioether N-13)
8,200 to 2000 nM,CC(C)C[C@@H]1NC(=O)[C@H](CCCNC(=N)N)NC(=O)[C@H](C(C)C)NC(=O)[C@@H]2CCCN2C(=O)[C@H](Cc2ccc(O)cc2)NC(=O)[C@H](CCCNC(=N)N)NC(=O)[C@H](CC(=O)O)NC(=O)[C@@H]2CCCN2C(=O)CN(C)C(=O)[C@H](Cc2ccc(-c3ccccc3)cc2)NC(=O)[C@H](Cc2ccc(-c3ccccc3)cc2)NC(=O)[C@H](Cc2ccccc2)NC(=O)CSC[C@@H](C(=O)NCC(N)=O)NC1=O [Example 15] ({CH2CO}-F[Bip][Bip][Sar]PDRYPVRLCG-NH2; thioether N-13)
9,50 to 200 nM,CC[C@H](C)[C@@H]1NC(=O)[C@@H](CCCNC(=N)N)NC(=O)[C@H](CC(=O)O)NC(=O)[C@H](Cc2cnc[nH]2)NC(=O)CN(C)C(=O)[C@H](Cc2ccc(-c3ccc(NC(=O)c4ccccc4Oc4cccc(C(=O)O)c4)cc3)cc2)NC(=O)[C@H](Cc2ccc(-c3ccccc3)cc2)NC(=O)[C@H](CC2CCCCC2)NC(=O)CSC[C@@H](C(=O)NCC(N)=O)NC(=O)[C@H](CC(C)C)NC(=O)[C@H](Cc2cnc[nH]2)NC(=O)[C@H](C(C)C)NC(=O)[C@@H]2CCCN2C1=O [Example 354] ({CH2CO}-[Cha][Bip][Bip(4'-NH)](X3)[Sar]HD[dR]IPVHLCG-NH2; thioether N-13)
